Source: publication PMC6445242, “Novel tetrazole and cyanamide derivatives as inhibitors of cyclooxygenase-2 enzyme: design, synthesis, anti-inflammatory evaluation, ulcerogenic liability and docking study” (Journal of Enzyme Inhibition and Medicinal Chemistry, 2017)
Entries after “also recorded” stand apart in the source; their conditions may differ.

Tests used:
[1] = test system: carrageenan-induced paw oedema; test: Carrageenan-induced rat paw oedema; type: in vivo; settings: 50 mg/kg oral; for %Inhibition of paw oedema, 1h / Paw thickness change mean ± SEM, 1h: 1 h after carrageenan; for Paw thickness change mean ± SEM, 1h / Paw thickness change mean ± SEM, 3h / Paw thickness change mean ± SEM, 5h: n = 4; for %Inhibition of paw oedema, 3h / Paw thickness change mean ± SEM, 3h: 3 h after carrageenan; for %Inhibition of paw oedema, 5h / Paw thickness change mean ± SEM, 5h: 5 h after carrageenan
Description: Female wister rats (150-200 g) were used in this study. The animals were kept at controlled conditions (temperature 23 ± 2 °C, humidity 60 ± 10%) and a 12/12-h light/dark cycle with access to food and water. All procedures relating to animal care and treatments were performed according to protocols approved by the Research Ethical Committee of Faculty of Pharmacy Beni-Suef University (2014-Beni-Suef, Egypt). The anti-inflammatory activity of the synthesised compounds was determined in vivo by […]-induced paw oedema method in rats[49]. Rats were divided into 21 groups of four animals each, and then, they were fasted overnight with free access to water before the experiment. Before any drug administration, thickness of the left hind paw of each rat was measured in millimetres. Group 1 served as a control and administered the vehicle (2.5% Tween 80).

[2] = test system: abdominal writhings; test: Acetic acid-induced writhing test (peripheral analgesic activity); settings: 10 mg/kg oral, mice, 0.6% acetic acid i.p.
Description: Pain was induced by intraperitoneal injection of acetic acid, then counting the number of abdominal writhings.

[3] = test system: gastric mucosa (ulcer number, ulcer index); test: Ulcerogenic liability; type: in vivo, rat; settings: 50 mg/kg oral, three successive days, rats; for Ulcer index: sum of % incidence, average severity and average number of ulcers
Description: Female wister rats (150–200 g) were used in this study. The animals were kept at controlled conditions (temperature 23 ± 2 °C, humidity 60 ± 10%) and a 12/12-h light/dark cycle with access to food and water. All procedures relating to animal care and treatments were performed according to protocols approved by the Research Ethical Committee of Faculty of Pharmacy Beni-Suef University (2014-Beni-Suef, Egypt).
[…]. Forty-eight rats were used in this study, divided into 12 groups and fasted for 18 h before drug administration. The control group received the vehicle (2.5% Tween 80). Other groups received test compounds, celecoxib or indomethacin at a dose of 50 mg/kg, then animals were fed after 2 h. Rats were given the specified dose orally for three successive days. Rats were sacrificed after 2 h of the last dose, then the stomach of each rat was removed and opened along the greater curvature for determination of the ulcer number and ulcer index according to the reported method.

[4] = target: T1, ovine COX-1 (Ovis aries, UniProt P05979); test: In vitro COX-1 inhibition assay (EIA kit, Cayman)
T1 sequence (P05979 25-600): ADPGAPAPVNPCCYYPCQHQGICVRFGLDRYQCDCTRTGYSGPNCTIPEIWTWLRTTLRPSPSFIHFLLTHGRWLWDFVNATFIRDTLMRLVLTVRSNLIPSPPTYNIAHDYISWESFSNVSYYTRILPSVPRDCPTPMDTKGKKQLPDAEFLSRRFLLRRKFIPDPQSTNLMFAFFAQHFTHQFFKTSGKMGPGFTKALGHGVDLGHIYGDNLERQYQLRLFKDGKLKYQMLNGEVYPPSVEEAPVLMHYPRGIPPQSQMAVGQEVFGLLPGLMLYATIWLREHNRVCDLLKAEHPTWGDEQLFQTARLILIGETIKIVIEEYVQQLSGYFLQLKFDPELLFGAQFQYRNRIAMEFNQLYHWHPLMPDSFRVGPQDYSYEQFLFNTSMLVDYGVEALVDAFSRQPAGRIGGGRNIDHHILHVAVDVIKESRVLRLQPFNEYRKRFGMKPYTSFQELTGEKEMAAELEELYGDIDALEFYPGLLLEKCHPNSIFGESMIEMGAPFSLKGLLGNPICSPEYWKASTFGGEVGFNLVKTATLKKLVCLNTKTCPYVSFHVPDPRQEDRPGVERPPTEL
Description: (§1) The peroxidase activity of cyclooxygenase enzyme isoforms was measured using the COX activity assay kit. The ability of the test compounds to inhibit both ovine COX-1 and COX-2 enzymes was explored in vitro using a colorimetric enzyme immunoassay (EIA) kit. The appearance of oxidised N,N,N′,N′-tetramethyl-p-phenylenediamine (TMPD) was monitored at 590 nm. The kit includes isozyme-specific inhibitors for distinguishing COX-2 activity from that of COX-1.

[5] = target: T2, ovine COX-2 (Ovis aries, UniProt P79208); test: In vitro COX-2 inhibition assay (EIA kit, Cayman); settings: for IC50: IC50 COX-2, ovine COX-2, mean of two determinations; for SI, COX-2 selectivity index (COX-1 IC50/COX-2 IC50): ovine enzymes
T2 sequence (P79208 17-603): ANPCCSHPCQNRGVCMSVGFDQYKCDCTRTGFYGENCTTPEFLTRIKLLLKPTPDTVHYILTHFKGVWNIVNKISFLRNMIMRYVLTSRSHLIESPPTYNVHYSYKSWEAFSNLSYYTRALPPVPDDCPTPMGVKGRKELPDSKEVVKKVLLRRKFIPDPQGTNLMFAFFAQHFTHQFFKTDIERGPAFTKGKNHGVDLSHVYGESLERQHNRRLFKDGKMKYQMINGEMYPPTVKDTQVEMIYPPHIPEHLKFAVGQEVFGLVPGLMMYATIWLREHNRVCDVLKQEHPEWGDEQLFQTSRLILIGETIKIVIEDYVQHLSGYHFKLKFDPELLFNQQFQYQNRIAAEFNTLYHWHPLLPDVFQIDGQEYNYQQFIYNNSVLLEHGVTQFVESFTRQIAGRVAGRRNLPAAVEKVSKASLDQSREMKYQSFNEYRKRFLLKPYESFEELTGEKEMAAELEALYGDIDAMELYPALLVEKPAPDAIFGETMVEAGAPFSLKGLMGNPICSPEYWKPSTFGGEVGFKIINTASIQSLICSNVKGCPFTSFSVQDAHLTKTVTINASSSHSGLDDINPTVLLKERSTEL
Description: as §1

[6] = test system: rat's gastric tissue; test: Histopathological investigation of stomach; type: in vivo; settings: haematoxylin and eosin, after ulcerogenic liability dosing
Description: Whole rats stomach were collected, selected stomach samples from each rat were fixed in 10% neutral buffered formalin for 48 h and routinely processed for paraffin embedding. 5 μm Thickness sections were obtained then stained with haematoxylin and eosin for histopathological evaluation.

[7] = cited from earlier work
[8] = test system: COX-2; settings: cited from earlier work
[9] = test system: latency time of pain response; test: Hot plate method (central analgesic activity); type: in vivo; settings: 10 mg/kg oral, mice, hot plate 55 °C, after 60 min
Description: This method was used to evaluate the central analgesic activity by determination of the delay in the latency time of pain response. […] After 60 min, the animals were placed on a hot plate maintained at 55 ± 0.5 °C. The reaction time was recorded as the time taken by the animals to […] or lick the fore or hind paw or jump off the plate.

melting point [°C]	IC50 [4] [µM]	IC50 [5] [µM]	SI, COX-2 selectivity index (COX-1 IC50/COX-2 IC50) [5]	Structure (SMILES)	%Inhibition of paw oedema, 1h [1] [%]	Paw thickness change mean ± SEM, 1h [1] [mm]	%Inhibition of paw oedema, 3h [1] [%]	Paw thickness change mean ± SEM, 3h [1] [mm]	%Inhibition of paw oedema, 5h [1] [%]	Paw thickness change mean ± SEM, 5h [1] [mm]	Peripheral analgesic activity (writhing) [2]	Average number of ulcers [3]	Ulcer index [3]	Histopathological findings in stomach [6]	Gastric ulceration side effect [7]	COX-2/COX-1 selectivity (SI) [8]	Central analgesic activity (delay in latency time) [9]
226 to 228	7.11	0.33	21.54	COc1ccc(C2CC(c3ccc(-n4cnnn4)cc3)=NN2c2ccc(S(N)(=O)=O)cc2)cc1OC (stereo not shown) [Compound 9a, 4-{3-[4-(1H-Tetrazol-1-yl)phenyl]-5-(3,4-dimethoxyphenyl)-4,5-dihydro-1H-pyrazol-1-yl)benzenesulphonamide]	75	0.40 ± 0.00	39	1.03 ± 0.09	19	1.08 ± 0.20	most active	1.25	2.00	sever congestion in blood capillaries and lymphocytic infiltration; also recorded: caused destructive effect on the mucosa and ulceration			
				O=C1OCC(c2ccc(-c3nnn[nH]3)cc2)=C1c1ccccc1 [VI]											lacked the side effect of gastric ulceration	2.11	
				Cc1ccc(-c2cc(C(F)(F)F)nn2-c2ccc(-c3nnn[nH]3)cc2)cc1 [V]											lacked the side effect of gastric ulceration	2.16	
263 to 265	11.3	0.45	25.13	CN(C)c1ccc(-c2cc(-c3ccc(-n4cnnn4)cc3)[nH]c(=O)c2C#N)cc1 [Compound 5d, 6-[4-(1H-Tetrazol-1-yl)phenyl]-4-[4-(dimethylamino)phenyl]-2-oxo-1,2-dihydropyridine-3-carbonitrile]	71	0.45 ± 0.10	63	0.61 ± 0.12	43	0.76 ± 0.15	most active	1.25	1.50	Mucous degeneration in gastric glandular epithelium, thickening and hyalinosis of basement membrane, as well as eosinophilic infiltrations in submucosa			
272 to 274	7.14		37.57	COc1ccc(-c2cc(-c3ccc(-n4cnnn4)cc3)[nH]c(=O)c2C#N)cc1OC [Compound 5e, 6-[4-(1H-Tetrazol-1-yl)phenyl]-4-(3,4-dimethoxyphenyl)-2-oxo-1,2-dihydropyridine-3-carbonitrile]	71	0.45 ± 0.16	42	0.98 ± 0.03	49	0.68 ± 0.08	most active	1.00	1.25	affect only muscular layer of the stomach by causing corrugation and hyalinosis in some muscle bundles and reach to coagulative necrosis			potent analgesic activities
